Source: paper PMC10659578, “Mechanism of stepwise electron transfer in six-transmembrane epithelial antigen of the prostate (STEAP) 1 and 2” (eLife, 2023)

Columns and labels:
STEAP2 = biological target: T1, STEAP2 (Homo sapiens, UniProt Q8NFT2); experiment: cryo-EM structure, […] Å; assay type: binding
T1 construct: full-length (490 residues), C-terminal His6-tag cleaved by TEV protease; High Five or Sf9 insect cells; LMNG or GDN; homotrimer
T1 sequence (Q8NFT2 1-490): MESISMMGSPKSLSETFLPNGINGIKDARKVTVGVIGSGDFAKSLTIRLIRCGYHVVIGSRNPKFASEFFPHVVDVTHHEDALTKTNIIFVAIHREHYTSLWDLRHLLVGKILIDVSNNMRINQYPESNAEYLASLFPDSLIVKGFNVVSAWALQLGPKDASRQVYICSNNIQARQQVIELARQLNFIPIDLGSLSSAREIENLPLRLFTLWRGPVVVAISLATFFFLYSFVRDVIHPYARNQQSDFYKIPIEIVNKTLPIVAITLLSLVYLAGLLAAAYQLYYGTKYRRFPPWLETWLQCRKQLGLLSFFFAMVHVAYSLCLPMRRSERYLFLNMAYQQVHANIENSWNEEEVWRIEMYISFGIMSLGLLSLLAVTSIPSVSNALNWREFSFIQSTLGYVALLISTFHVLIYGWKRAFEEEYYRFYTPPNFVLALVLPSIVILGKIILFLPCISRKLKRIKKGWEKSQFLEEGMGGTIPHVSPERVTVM

[1] = biological target: T2, cytochrome b5 reductase (b5R) (Mus musculus, UniProt Q9DCN2); experiment: rapid-scan stopped-flow FAD reduction; assay type: biochemical; conditions: anaerobic, 1.5 μM b5R with 1.5 μM STEAP1 and 10 μM NADH
T2 construct: gene Cyb5r3
T2 sequence (Q9DCN2 24-301): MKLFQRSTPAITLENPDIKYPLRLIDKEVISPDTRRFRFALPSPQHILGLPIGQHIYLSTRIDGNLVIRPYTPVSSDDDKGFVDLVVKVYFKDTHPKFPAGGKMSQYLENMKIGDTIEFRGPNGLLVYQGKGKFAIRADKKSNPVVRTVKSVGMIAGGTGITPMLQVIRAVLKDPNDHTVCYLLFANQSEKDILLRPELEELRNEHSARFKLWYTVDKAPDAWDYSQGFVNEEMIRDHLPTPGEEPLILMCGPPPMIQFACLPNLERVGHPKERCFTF

In the case of Cc1cc2nc3c(=O)[nH]c(=O)nc-3n(C[C@H](O)[C@H](O)[C@H](O)COP(=O)(O)OP(=O)(O)OC[C@H]3O[C@@H](n4cnc5c(N)ncnc54)[C@H](O)[C@@H]3O)c2cc1C [FAD], the “cryo-EM structure, 3.2 Å” value (STEAP2; complex with NADP+ and heme, extended conformation, isoalloxazine ring in TMD, adenine stacks on Trp152 of OxRD) is reported as “Heme, FAD, and NADP^+ are unambiguously resolved in the density map”.
For NC(=O)C1=CN([C@@H]2O[C@H](COP(=O)(O)OP(=O)(O)OC[C@H]3O[C@@H](n4cnc5c(N)ncnc54)[C@H](O)[C@@H]3O)[C@@H](O)[C@H]2O)C=CC1 [NADH], the “rapid-scan stopped-flow FAD reduction” value [1] was “intermediate B is due to fast FAD reduction in b5R by NADH”.
With NC(=O)c1ccc[n+]([C@@H]2O[C@H](COP(=O)(O)OP(=O)(O)OC[C@H]3O[C@@H](n4cnc5c(N)ncnc54)[C@H](OP(=O)(O)O)[C@@H]3O)[C@@H](O)[C@H]2O)c1 [NADP^+] the “cryo-EM structure, 3.2 Å” value (STEAP2; complex with FAD and heme, OxRD site) was “Heme, FAD, and NADP^+ are unambiguously resolved in the density map”.
